# Experimental data taken from patent US10982109B2, “Two-component printable conductive composition” (PRINTCB LTD., priority 2018, dated 2021).
# Key:
# [1] = Viscosity of the mixed composition (Brookfield digital viscometer); assay type: physicochemical; conditions: for Viscosity of the mixed composition: acid replacing citric acid in activated flux of Example 1, relative scale; for Viscosity trend versus composition without stabilizing agent: time following mixing
# [2] = Stability / pot life of the mixed composition held at room temperature; conditions: in fluxing component of the two-component composition
# Protocol: The two components were mixed at a proportion of 3.6:1 (by weight). The mixed composition was held at room temperature and its viscosity was measured hourly by Brookfield digital viscometer. Following each viscosity measurement, a line was printed on a glass substrate, the line being 50 mm long, 2 mm wide, and 40 μm thick. The printed ink was then sintered in a forced-air oven at 150° C. and the resistance of the obtained printed line was measured.
Structure (SMILES),Viscosity of the mixed composition [1],other results
"CC(=O)O [Acetic, acetic acid]",5,–
CCCCCCCCCCCCS [dodecanethiol],–,Viscosity trend versus composition without stabilizing agent [1]: smaller viscosity increase
CCCCCCCCS [octanethiol],–,Viscosity trend versus composition without stabilizing agent [1]: smaller viscosity increase; Effect of the stabilizing agent on pot life [2]: extend the pot life
NC(N)=S [thiourea],–,Effect of the stabilizing agent on pot life [2]: extending the pot life

# Continued, in another order:
Viscosity of the mixed composition [1],Structure (SMILES),other results
1,"O=C(O)/C=C/C(=O)O [Fumaric, fumaric acid]",–
5,"O=C(O)/C=C\C(=O)O [Maleic, maleic acid]",–
1,"O=C(O)C(=O)O [Oxalic, Oxalic acid]",Viscosity behaviour at room temperature following mixing [1]: increased within a few minutes such that it was not suitable for printing
5,"O=C(O)C(O)C(O)C(=O)O (stereo not shown) [Tartaric, tartaric acid]",–
